The values that follow come from US9597406B2, “Controlled release method for a pharmaceutical composition composed of chelating complex micelles” (Original BioMedicals Co., Ltd, priority 2012, dated 2017).

Data set [1] relates to mouse embryonic liver cells (BNLCL.2). The data set can be described thus: MTT cell viability test of doxorubicin CCM (FePD) with and without deferoxamine. Type of data set: cell-based. To be noted: 4 μM, 2 h incubation, then 24 h fresh medium, BNLCL.2 cells, 4 µM. How it is done: (§1) The cell viability test of doxorubicin CCM (FePD) was examined with and without adding metal chelator deferoxamine. MTT (3-(4,5-cimethylthiazol-2-yl)-2,5-diphenyl tetrazolium bromide) assay was used to assess the cytotoxicity of cells treated with FePD and deferoxamine.
(§2) The mouse embryonic liver cells (BNLCL.2) (100 μL) were inoculated onto a 96-well plate with density 1×10^5 cells/mL and cultured for 24 hr at 37° C. with 5% CO2 before subjecting to the test. After removal of supernatant, 100 μL of each sample was added to the cells and incubated for 2 hours (Table 1). The samples were sterilized by using 0.22 μm filters prior to treating the cells. The plate was then washed with PBS (phosphate buffered saline) and incubated with fresh medium for 24 hours. After removal of supernatant and washed with PBS, 10 μL MTT solution was added to the cells and incubated for 4 hours. The absorbance at 570 nm was measured (BioTek, Synergy TM2, USA).
In general terms: Tetrazolium assays rely on reduction of a dye to a coloured formazan, in cell work by metabolically active cells.

Assay in data set [2]: as above
Type of data set: cell-based, mouse. The settings on record: mouse, BNLCL.2 mouse embryonic liver cells, 2 h incubation, BNLCL.2 cells. The procedure:
as §1, §2

A word on the viability: it is a read-out of living cells in per cent, often relative to untreated cells.

In the case of `COc1cccc2c1C(=O)c1c(O)c3c(c(O)c1C2=O)C[C@@](O)(C(=O)CO)C[C@@H]3O[C@H]1C[C@H](N)[C@H](O)[C@H](C)O1` [doxorubicin], the “Cell viability (%)” value in data set [1] came out at 74.7292%. In addition, the viability at 2 h, 4 μM was 74.7% in data set [2] (4 μM, then 24 h fresh medium) and 78.3% in data set [2] (Group G: 4 μM + deferoxamine (13.5 μM)).

As to `CC(=O)N(O)CCCCCNC(=O)CCC(=O)N(O)CCCCCNC(=O)CCC(=O)N(O)CCCCCN` [deferoxamine], the viability at 2 h, 13.5 µM in data set [2] (13.5 μM, then 24 h fresh medium) was 104%.
